The assay deals with HCV pseudoparticles, genotype 1a HCV E1 and E2 envelope (H77C isolate). Nature of the assay: HCV pseudoparticle infection assay (luciferase reporter, Huh7 cells). The assay is classed as cell-based, HCV genotype 1a (H77C). The following applies: Hepatitis C virus, Huh-7, 48 h. (In general: A reporter such as luciferase makes a cellular process visible.)
Where [1] appears, read: read-out: EC50 (nM) 1a (H77C), HCV pseudoparticle entry into Huh7 cells, luciferase measured 2 days after infection, average of duplicates.
Where [2] appears, read: read-out: EC50 (nM) 1a (H77C), class symbol, HCV pseudoparticle entry into Huh7 cells, luciferase measured 2 days after infection.

SMILES strings stand for the structures. Read-outs that look alike come from different tables or passages of the source.

The EC50 is the concentration needed to bring the measured effect to its halfway point. On to `O=C1c2ccc(cc2)Nc2nc(nc(OCC(F)(F)F)n2)NCc2ccc(cc2)OCCCN2CCC3(CCN1C3)C2` (stereo not drawn) [Example 1001], for which the EC50 under setting [1] amounted to 160 nM and the EC50 under setting [2] was in the range of 10 to 1000 nM. Taken in the same sequence, the figures for `O=C1c2ccc(cc2)Nc2nc(nc(OCC(F)(F)F)n2)NCc2ccc(cc2)OCCCN2CCCNCCCN1CCC2` [Example 1002] were 5.32 nM and 0.01 to 10 nM. As to `C=C1CNCC2CN(C2)C(=O)c2ccc(cc2)Nc2nc(nc(OCC(F)(F)F)n2)NCc2ccc(cc2)OC1` [Example 2001], under setting [2], the EC50 lay within 0.01 to 10 nM. On the same count and under the same terms, then `C=C1COc2ccc(cc2)CNc2nc(nc(OCC(F)(F)F)n2)Nc2ccc(cc2)C(=O)N2CCCN(CC2)C1` [Example 2002], with 10 to 1000 nM.

`C=C1COc2ccc(cc2)CNc2nc(nc(OCC(F)(F)F)n2)Nc2ccc(cc2)C(=O)N2CC3(CN(C1)C3)C2` [Example 2003]: the EC50 is 3.08 nM under setting [1] and 0.01 to 10 nM under setting [2].

Turning to `C=C1COc2ccc(cc2)CNc2nc(nc(OCC(F)(F)F)n2)Nc2ccc(cc2)C(=O)N2CC3CN(C1)CC3C2` [Example 2004], the EC50 under setting [2] lay in the range of 10 to 1000 nM. Still for that read-out and setting: next, `C[C@H]1CNC2C3CN(CC32)C(=O)c2ccc(cc2)Nc2nc(nc(OCC(F)(F)F)n2)NCc2ccc(cc2)OC1` [Example 3001]: 10 to 1000 nM. In the case of `C[C@@H]1COc2ccc(cc2)CNc2nc(nc(OCC(F)(F)F)n2)Nc2ccc(cc2)C(=O)N2CC3CCN(CC3C2)C1` (stereo partly drawn) [Example 3002], the EC50 reads like this: under setting [1], 116 nM; under setting [2], 10 to 1000 nM. Consider `C[C@@H]1COc2ccc(cc2)CNc2nc(nc(OCC(F)(F)F)n2)Nc2ccc(cc2)C(=O)N2CC3(C)CN(C1)CC(C)(C2)C3=O` [Example 3003], for which the EC50 under setting [1] came out at 34.3 nM and the EC50 under setting [2] fell in the range of 10 to 1000 nM. As for `CC1(C)CNC(=O)C(=O)Nc2ccc(cc2)OCCCCOc2ccc(cc2)CNc2nc(nc(OCC(F)(F)F)n2)Nc2ccc(cc2)C(=O)NC1` [Example 4001], the EC50 under setting [2] was in the range of 10 to 1000 nM. As to `CC1(C)CNC(=O)C(=O)Nc2ccc(cc2)OCCCOc2ccc(cc2)CNc2nc(nc(OCC(F)(F)F)n2)Nc2ccc(cc2)C(=O)NC1` [Example 4002], the EC50 under setting [2] lay within 0.01 to 10 nM. As to `CC1(C)CNC(=O)C(=O)Nc2ccc(cc2)OCCOc2ccc(cc2)CNc2nc(nc(OCC(F)(F)F)n2)Nc2ccc(cc2)C(=O)NC1` [Example 4003], the EC50 was 23.6 nM under setting [1] and 10 to 1000 nM under setting [2]. Consider `CC1(C)CNC(=O)C(=O)Nc2ccc(cc2)OC/C=C/COc2ccc(cc2)CNc2nc(nc(OCC(F)(F)F)n2)Nc2ccc(cc2)C(=O)NC1` [Example 4004], for which the EC50 under setting [2] fell in the range of 10 to 1000 nM. Still for that read-out and setting: next, `CC1(C)CNC(=O)C(=O)Nc2ccc(cc2)OC/C=C\COc2ccc(cc2)CNc2nc(nc(OCC(F)(F)F)n2)Nc2ccc(cc2)C(=O)NC1` [Example 4005]: 10 to 1000 nM.

As to `CC1(C)CNCC2(COC2)COc2ccc(cc2)CNc2nc(nc(OCC(F)(F)F)n2)Nc2ccc(cc2)C(=O)NC1` [Example 5001], the EC50 is 0.796 nM under setting [1] and 0.01 to 10 nM under setting [2]. With `O=C1NCC2(CNCCCOc3ccc(cc3)CNc3nc(nc(OCC(F)(F)F)n3)Nc3ccc1cc3)COC2` [Example 6001], the EC50 under setting [2] was 0.01 to 10 nM. With `C[C@H]1CNCC2(CNC(=O)c3ccc(cc3)Nc3nc(nc(OCC(F)(F)F)n3)NCc3ccc(cc3)OC1)COC2` [Example 6002], under setting [2], the EC50 lay within 10 to 1000 nM.

With `O=C1NCCCNCC2(COC2)COc2ccc(cc2)CNc2nc(nc(OCC(F)(F)F)n2)Nc2ccc1cc2` [Example 6003], the EC50 under setting [2] lay within 0.01 to 10 nM. The same measure, in the same setting: next, `C[C@@H]1CNCC2(CNC(=O)c3ccc(cc3)Nc3nc(nc(OCC(F)(F)F)n3)NCc3ccc(cc3)OC1)COC2` [Example 6004]: 10 to 1000 nM. Regarding `O=C1NCC2(CC2)CNCC2(COC2)COc2ccc(cc2)CNc2nc(nc(OCC(F)(F)F)n2)Nc2ccc1cc2` [Example 6005], the EC50 under setting [2] fell in the range of 0.01 to 10 nM.

(Values after patent US9624245B2, “Macrocyclic compounds as HCV entry inhibitors” (priority 2013, dated 2017).)
